Holding throughout (assay type): in vivo
Assay [1] has as its system Cheatgrass, Bromus tectorum. The assay is described as follows: Petri dish seed germination test on cheatgrass, with Colby analysis. The settings on record: for %_Germ—14DAP: Petri Dish Run 1, germination at day 14; for %_Germ11DAP: Petri Dish Run 2, germination at day 11, repetitions R1-R3; for %_Germ_8DAP: germination at day 8, Run1 R0 and Run2 R1-R3. The protocol: (§1) Place 10 seeds on moistened filter paper in 100 mm petri dishes, with three petri dishes per treatment. Using a pipette, apply 0.01 mL of the solution (water for controls, Pseudomonas for treated) evenly over the top surface of each seed. For the ethylene inhibitor treatment, place a small aluminum weigh boat containing lmL inhibitor solution in the petri dish. Ethylene inhibitor solution should be replaced daily. Cover seeds with another sheet of moistened filter paper before closing the petri dish. As needed, moisten the filter paper throughout the experiment with 1 mL of water at a time. Allow plants to germinate and grow for 11 days, removing the filter paper on day 5. Record the number of seeds germinated each day. Image analysis may be used at the end of the experiment to record total root and shoot growth.
One species: Cheatgrass, Bromus tectorum
(§2) Three timings of Pseudomonas fluorescens strain D7 application: 0, 3, and 7 days after planting
(§3) Four seed treatments: water (control), Pseudomonas fluorescens strain D7, 1-MCP, Pseudomonas fluorescens strain D7 and 1-MCP combination
Run 1: 12 seeds/dish, 1 petri dish/treatment combo
Run 2: 10 seeds/dish, 3 petri dishes/treatment combo
A Colby Analysis was carried out for the data obtained in Example 2. The first data set is shown in Table 1 below, where cheatgrass (Bromus tectorum) was treated with Pseudomonas fluorescens strain D7 (D7) and 1-methylcyclopropene (1-MCP) alone or in combination at days 0, 3, and 7 of the treatment period. The percentage of germination was then determined at day 14 of the treatment period.
The Colby equation is a standard method for determining the presence of synergy. The Colby equation is as follows:
[formula] • wherein X and Y are the effects of the active agents (e.g., Pseudomonas fluorescens strain D7 (D7) and 1-methylcyclopropene (1-MCP)) applied alone (expressed as % of control).
The standard Colby equation interpretation is: If Observed Value is greater than the Expected Value, synergy exists. However, based on the goal of reducing germination in this study, the appropriate interpretation here is: If the Observed Value is less than the Expected Value, synergy.

Another assay deals with Tall Fescue. As to the kind of experiment: Petri dish seed germination test on Tall Fescue. The settings on record: Tall Fescue seeds. The protocol: as §1, with “1 mL” for “lmL”
(§4) Two species: Tall Fescue and Kentucky Bluegrass
as §2, §3
(§5) Twelve seeds/petri dish (TF), 40 seeds/petri dish (KB)×3 petri dishes/treatment combination

Another assay deals with Kentucky Bluegrass. The assay is described as follows: Petri dish seed germination test on Kentucky Bluegrass. The settings on record: Kentucky Bluegrass seeds. The protocol:
as §1, with “1 mL” for “lmL”
as §4, §2, §3, §5

Setting [2] is: Petri Dish Run 2 at Day 11, treatment Day 0, mean of repetitions.
The mark [3] stands for this setting: Petri Dish Run 2 at Day 11, treatment Day 3, mean of repetitions.
Setting [4] is: Petri Dish Run 2 at Day 11, treatment Day 7, mean of repetitions.
The mark [5] stands for this setting: treatment Day 0, day 8, mean of Run1 and Run2 repetitions.
Where [6] appears, read: treatment Day 3, day 8, mean of Run1 and Run2 repetitions.
[7] abbreviates: treatment Day 7, day 8, mean of Run1 and Run2 repetitions.

Values joined by “and” are separate entries in the source; they are usually repeats but may differ in a detail not shown here. Identical values can stand only once.

Take `CC1=CC1` [1-MCP, 1-methylcyclopropene, reference compound]: the entries for the “%_Germ—14DAP” value in assay [1] (treatment Day 0), in assay [1] (treatment Day 3) and in assay [1] (treatment Day 7) were 75.00%, 25.00% and 100.00%, respectively. Further, the “%_Germ11DAP” value in assay [1] (treatment Day 0, listed as 1-MCP alone) is 80% and 90%; in assay [1] (treatment Day 3, listed as 1-MCP alone) it was 80% and 90%; in assay [1] (treatment Day 7, listed as 1-MCP alone) it was 100% and 70% and 80%. Further, the “Day 8% Germ Mean” value turned out to be 86.67% in assay [1] (setting [2]); 83.33% in assay [1] (setting [3]); 83.33% in assay [1] (setting [4]); 81.25% in assay [1] (setting [5]); 61.25% in assay [1] (setting [6]); 75.83% in assay [1] (setting [7]). Further, the “%_Germ_8DAP” value is 75.00% and 80.0% and 90.0% in assay [1] (treatment Day 0, listed as MCP); 83.33% and 90.0% and 60.0% and 70.0% in assay [1] (treatment Day 7, listed as MCP).
Consider Pseudomonas fluorescens strain D7, for which the figures for the “%_Germ—14DAP” value in assay [1] (treatment Day 0), in assay [1] (treatment Day 3) and in assay [1] (treatment Day 7) were 58.33%, 83.33% and 75.00%, respectively. In addition, the “%_Germ11DAP” value in assay [1] (treatment Day 0, listed as D7 Alone) was 60% and 50%; in assay [1] (treatment Day 3, listed as D7 Alone), 100% and 60% and 70%; in assay [1] (treatment Day 7, listed as D7 Alone), 90% and 60% and 70%. Also, the “Day 8% Germ Mean” value in assay [1] (setting [2]) was found to be 56.67%; in assay [1] (setting [3]) it was 76.67%; in assay [1] (setting [4]) it was 73.33%; in assay [1] (setting [5]), 31.67%; in assay [1] (setting [6]) it was 73.33%; in assay [1] (setting [7]), 65.00%. For the same compound, the “influence of application time on germination outcomes” value in assay [1] (application 0, 3 or 7 days after planting) is reported as “early application being the most effective”. The “%_Germ_8DAP” value is 83.33% and 100.0% and 60.0% and 50.0% in assay [1] (treatment Day 3); 50.00% and 80.0% and 60.0% and 70.0% in assay [1] (treatment Day 7). The effect on germination result in the assay with Tall Fescue and in the assay on Kentucky Bluegrass was “did not affect germination” each time.

The record behind these values is patent US20260262655A1, “INHIBITION OF SEED GERMINATION USING A COMBINATION OF BIOLOGICAL AND CHEMICAL INHIBITORS OF ETHYLENE” (Verdesian Life Sciences U.S., LLC, priority 2023, published 2026).
